Assay type in all cases: functional
One experiment concerns Bacillus cereus. The experiment in a line: Antibacterial activity against Bacillus cereus by broth macrodilution method.
The subject of the next experiment is Klebsiella pneumoniae. Kind of experiment: Antibacterial activity against Klebsiella pneumoniae by broth macrodilution method.
For a further experiment, the system named is Staphylococcus aureus. The experiment in a line: Antibacterial activity against Staphylococcus aureus by broth macrodilution method.
Another experiment concerns Salmonella. Kind of experiment: Antibacterial activity against Salmonella by broth macrodilution method.
The next experiment concerns Escherichia coli. Kind of experiment: Antibacterial activity against Escherichia coli by broth macrodilution method.
For another experiment, the system named is Enterococcus faecalis. Kind of experiment: Antibacterial activity against Enterococcus faecalis by broth macrodilution method.
In another experiment the test system is Proteus mirabilis. Kind of experiment: Antibacterial activity against Proteus mirabilis by broth macrodilution method.

In brackets after ≈: the same amount, converted by molar mass. A value given as a limit tells only on which side of the number the result lay.

Take `C=C[C@H]1CC[C@H]2[C@@H]3CC[C@@]4(C=CC(=O)C=C4C)[C@H]3CC[C@]12C` [CARIJODIENONE]: the MIC in the experiment on Bacillus cereus turned out to be 6 µg/mL (≈ 20.2 µM); with Klebsiella pneumoniae, 5 µg/mL (≈ 16.9 µM).
As for `C=C[C@H]1CC[C@H]2[C@@H]3CCC4=CC(=O)C=C[C@]4(C)[C@H]3CC[C@]12C`, the MIC with Staphylococcus aureus, against Salmonella, in the experiment with Escherichia coli, in the experiment on Bacillus cereus, with Enterococcus faecalis and in the experiment with Klebsiella pneumoniae was above 40 µg/mL each time. The compound further had an MIC against Proteus mirabilis above 40 µg/mL.

As a reminder, the MIC is the lowest concentration found to suppress growth. High values mean weaker potency, low ones greater potency.

Values taken from ChEMBL document CHEMBL1687864, “Carijodienone from the octocoral Carijoa multiflora. A spiropregnane-based steroid” (2011).
